According to PubChem BioAssay (NCI):
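Briefly, cells in 96-well plates were exposed to five compound concentrations for 48 h, and endpoints were estimated by linear interpolation. TGI: concentration producing complete growth inhibition.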

Tests used:
Test in all cases: NCI tumour cell line growth inhibition, 48 h
[1] = tested on: NCI/ADR-RES ovarian
[2] = tested on: MDA-N
[3] = tested on: HCC-2998 colon
[4] = tested on: NCI-H226 lung
[5] = tested on: K-562 leukemia
[6] = tested on: IGROV1 ovarian
[7] = tested on: RPMI-8226 leukemia
[8] = tested on: UACC-257 melanoma
[9] = tested on: A549 NSCLC
[10] = tested on: NCI-H23 lung
[11] = tested on: U251 CNS
[12] = tested on: SNB-19 CNS
[13] = tested on: SK-MEL-28 melanoma
[14] = tested on: CAKI-1 renal
[15] = tested on: SN12C renal
[16] = tested on: EKVX NSCLC
[17] = tested on: HT29 colon
[18] = tested on: SF-539 CNS
[19] = tested on: TK-10 renal
[20] = tested on: SK-OV-3 ovarian
[21] = tested on: PC-3 prostate
[22] = tested on: UACC-62 melanoma
[23] = tested on: SK-MEL-5 melanoma
[24] = tested on: HL-60(TB) leukemia
[25] = tested on: OVCAR-3 ovarian
[26] = tested on: MOLT-4 leukemia
[27] = tested on: HOP-62 NSCLC
[28] = tested on: A498 renal
[29] = tested on: SW-620 colon
[30] = tested on: MDA-MB-435
[31] = tested on: MDA-MB-231 breast
[32] = tested on: DU-145 prostate
[33] = tested on: HCT-116 colon
[34] = tested on: RXF 393 renal
[35] = tested on: MALME-3M melanoma
[36] = tested on: HCT-15 colon
[37] = tested on: OVCAR-5 ovarian
[38] = tested on: NCI-H460 lung
[39] = tested on: T-47D breast
[40] = tested on: UO-31 renal
[41] = tested on: M14 melanoma
[42] = tested on: SR leukemia
[43] = tested on: LOX IMVI melanoma
[44] = tested on: SF-268 CNS
[45] = tested on: NCI-H522 lung
[46] = tested on: SF-295 CNS
[47] = tested on: SK-MEL-2 melanoma
[48] = tested on: BT-549 breast
[49] = tested on: SNB-75 CNS
[50] = tested on: KM12 colon
[51] = tested on: HS 578T breast
[52] = tested on: OVCAR-4 ovarian
[53] = tested on: 786-0 renal
[54] = tested on: ACHN renal
[55] = tested on: CCRF-CEM leukemia
[56] = tested on: OVCAR-8 ovarian
[57] = tested on: MCF7 breast
[58] = tested on: COLO 205 colon
[59] = tested on: HOP-92 NSCLC

With CN(CCCNC(=O)c1c2ccc3ccccc3c2nn1C)CCCNC(=O)c1c2ccc3ccccc3c2nn1C the TGI [1] was 29.3 µM, the TGI [2] was 8.91 µM and the TGI [3] was 3.44 µM. It also gave a TGI [4] of 31.1 µM, a TGI [5] of 12 µM and a TGI [6] of 23.3 µM. For the same compound, the TGI [7] was 4.86 µM, the TGI [8] was 3.57 µM and the TGI [9] was 26.9 µM. For the same compound, the TGI [10] was 29.4 µM, the TGI [11] was 22.1 µM and the TGI [12] was 28.6 µM. It also gave a TGI [13] of 4.6 µM, a TGI [14] of 15.3 µM and a TGI [15] of 25.6 µM. The TGI [16] was 22.3 µM, the TGI [17] was 6.93 µM and the TGI [18] was 17.8 µM. The TGI [19] was 18.1 µM, the TGI [20] was 28.4 µM and the TGI [21] was 27.5 µM. The TGI [22] was 3.76 µM, the TGI [23] was 5.92 µM and the TGI [24] was 29.8 µM. It also gave a TGI [25] of 37.3 µM, a TGI [26] of 24 µM and a TGI [27] of 33.7 µM. For the same compound, the TGI [28] was 15.7 µM, the TGI [29] was 21.3 µM and the TGI [30] was 6.09 µM. For the same compound, the TGI [31] was 25.8 µM, the TGI [32] was 44.4 µM and the TGI [33] was 28 µM. For the same compound, the TGI [34] was 20 µM, the TGI [35] was 8.71 µM and the TGI [36] was 19.4 µM. It also gave a TGI [37] of 25.4 µM, a TGI [38] of 18.4 µM and a TGI [39] of 32.2 µM. For the same compound, the TGI [40] was 19.9 µM, the TGI [41] was 3.99 µM and the TGI [42] was 13 µM. It also gave a TGI [43] of 9.18 µM, a TGI [44] of 25.6 µM and a TGI [45] of 19.7 µM. It also gave a TGI [46] of 9.77 µM, a TGI [47] of 13.3 µM and a TGI [48] of 24 µM. For the same compound, the TGI [49] was 21.4 µM, the TGI [50] was 23.7 µM and the TGI [51] was 30.3 µM. The TGI [52] was 24 µM, the TGI [53] was 25.7 µM and the TGI [54] was 23.8 µM. The TGI [55] was 23.6 µM, the TGI [56] was 27.2 µM and the TGI [57] was 15.6 µM. The TGI [58] was 3.54 µM and the TGI [59] was 12.7 µM.
In the case of CC1=CC(=O)c2c(O)c3c(c(O)c2C1=O)C1C(O)C(C3=O)C23C(=O)c4c(O)c(C)cc(O)c4C(O)=C2C(=O)CC(O)C13 (configuration not stated), the TGI [2] is reported as 2.89 µM, the TGI [3] is reported as 10.2 µM and the TGI [4] is reported as 6.56 µM. For the same compound, the TGI [5] was > 100 µM, the TGI [6] was 6.58 µM and the TGI [8] was 3.5 µM. It also gave a TGI [9] of 10.8 µM, a TGI [10] of 14.1 µM and a TGI [11] of 15.9 µM. For the same compound, the TGI [12] was 20.2 µM, the TGI [13] was 6.78 µM and the TGI [14] was 3.57 µM. It also gave a TGI [15] of 5.55 µM, a TGI [16] of 8.21 µM and a TGI [17] of 7.05 µM. It also gave a TGI [18] of 5.07 µM, a TGI [19] of 11.6 µM and a TGI [20] of 6.86 µM. It also gave a TGI [21] of 10.2 µM, a TGI [22] of 3.24 µM and a TGI [23] of 4 µM. For the same compound, the TGI [24] was > 100 µM, the TGI [25] was 7.75 µM and the TGI [26] was 13 µM. For the same compound, the TGI [27] was 6.21 µM, the TGI [28] was 3.37 µM and the TGI [29] was 12.2 µM. The TGI [30] was 2.81 µM, the TGI [31] was 9.89 µM and the TGI [32] was 3.61 µM. The TGI [33] was 2.5 µM, the TGI [35] was 2.91 µM and the TGI [36] was 6.91 µM. For the same compound, the TGI [37] was 9.08 µM, the TGI [38] was 5.23 µM and the TGI [39] was 5.75 µM. The TGI [41] was 10.5 µM, the TGI [42] was 6.52 µM and the TGI [43] was 4.7 µM. The TGI [44] was 7.54 µM, the TGI [46] was 2.3 µM and the TGI [47] was 3.79 µM. The TGI [48] was 17.9 µM, the TGI [49] was 9.1 µM and the TGI [50] was 2.5 µM. It also gave a TGI [51] of 3.44 µM, a TGI [52] of 28 µM and a TGI [53] of 5.69 µM. For the same compound, the TGI [54] was 7.44 µM, the TGI [55] was > 100 µM and the TGI [56] was 8.65 µM. It also gave a TGI [57] of 14.6 µM and a TGI [58] of 4.76 µM.
Nc1ncc(Sc2ccccc2C(=O)O)s1 was tested, and the TGI [1] was > 100 µM, the TGI [2] was > 100 µM and the TGI [4] was > 100 µM. For the same compound, the TGI [5] was > 100 µM, the TGI [6] was > 100 µM and the TGI [7] was > 100 µM. For the same compound, the TGI [8] was > 100 µM, the TGI [9] was > 100 µM and the TGI [10] was > 100 µM. For the same compound, the TGI [11] was > 100 µM, the TGI [12] was > 100 µM and the TGI [13] was > 100 µM. For the same compound, the TGI [14] was > 100 µM, the TGI [15] was > 100 µM and the TGI [16] was > 100 µM. The TGI [17] was > 100 µM, the TGI [18] was > 100 µM and the TGI [19] was > 100 µM. For the same compound, the TGI [21] was > 100 µM, the TGI [22] was > 100 µM and the TGI [23] was > 100 µM. The TGI [24] was > 100 µM, the TGI [25] was > 100 µM and the TGI [26] was > 100 µM. For the same compound, the TGI [27] was > 100 µM, the TGI [28] was > 100 µM and the TGI [29] was > 100 µM. For the same compound, the TGI [30] was > 100 µM, the TGI [31] was > 100 µM and the TGI [32] was > 100 µM. For the same compound, the TGI [33] was > 100 µM, the TGI [34] was > 100 µM and the TGI [36] was > 100 µM. The TGI [37] was > 100 µM, the TGI [38] was > 100 µM and the TGI [39] was > 100 µM. The TGI [40] was > 100 µM, the TGI [41] was > 100 µM and the TGI [42] was > 100 µM. For the same compound, the TGI [43] was > 100 µM, the TGI [44] was > 100 µM and the TGI [46] was > 100 µM. The TGI [47] was > 100 µM, the TGI [48] was > 100 µM and the TGI [49] was > 100 µM. The TGI [50] was > 100 µM, the TGI [51] was > 100 µM and the TGI [53] was > 100 µM. The TGI [54] was > 100 µM, the TGI [55] was > 100 µM and the TGI [56] was > 100 µM. For the same compound, the TGI [57] was > 100 µM, the TGI [58] was > 100 µM and the TGI [59] was > 100 µM.
For COC1(c2ccccc2)NC(=S)NN=C1c1ccccc1 (configuration not stated), the TGI [1] was 37.7 µM, the TGI [2] was 45 µM and the TGI [3] was 37.8 µM. For the same compound, the TGI [5] was > 100 µM, the TGI [6] was > 100 µM and the TGI [7] was > 100 µM. For the same compound, the TGI [8] was > 100 µM, the TGI [9] was > 100 µM and the TGI [10] was > 100 µM. For the same compound, the TGI [11] was 46.6 µM, the TGI [12] was > 100 µM and the TGI [13] was > 100 µM. For the same compound, the TGI [14] was > 100 µM, the TGI [15] was 60.8 µM and the TGI [16] was > 100 µM. For the same compound, the TGI [17] was > 100 µM, the TGI [19] was > 100 µM and the TGI [20] was 78.4 µM. The TGI [21] was > 100 µM, the TGI [22] was > 100 µM and the TGI [23] was 80.7 µM. The TGI [24] was 54.5 µM, the TGI [25] was 84.6 µM and the TGI [26] was > 100 µM. For the same compound, the TGI [27] was > 100 µM, the TGI [28] was > 100 µM and the TGI [29] was > 100 µM. For the same compound, the TGI [30] was 39.1 µM, the TGI [31] was 70.9 µM and the TGI [32] was > 100 µM. For the same compound, the TGI [33] was > 100 µM, the TGI [34] was > 100 µM and the TGI [35] was > 100 µM. For the same compound, the TGI [36] was 64.2 µM, the TGI [37] was > 100 µM and the TGI [38] was 71.6 µM. For the same compound, the TGI [39] was > 100 µM, the TGI [40] was > 100 µM and the TGI [41] was > 100 µM. The TGI [42] was 85.8 µM, the TGI [43] was > 100 µM and the TGI [44] was > 100 µM. For the same compound, the TGI [45] was 73.8 µM, the TGI [46] was 99.3 µM and the TGI [47] was 75.8 µM. For the same compound, the TGI [48] was 82.8 µM, the TGI [49] was 97.5 µM and the TGI [50] was > 100 µM. For the same compound, the TGI [51] was > 100 µM, the TGI [53] was > 100 µM and the TGI [54] was > 100 µM. For the same compound, the TGI [55] was > 100 µM, the TGI [56] was 84 µM and the TGI [57] was > 100 µM. The TGI [58] was 49.8 µM and the TGI [59] was > 100 µM.
